Source: patent US10645928B2, “Pesticidally active polycyclic derivatives with sulfur containing substituents” (Syngenta Participations AG, priority 2014, dated 2020)

How the values were obtained:
[1] = system: Diabrotica balteata (Corn Root Worm); experiment: Example B2: Diabrotica balteata, sprayed maize sprouts, mortality and growth inhibition; type: in vivo; conditions: 96 h, application rate of 200 ppm, L2 larvae, 4 days after infestation, read-out: effect in at least one of the two categories (mortality or growth inhibition)
Description: (§1) Maize sprouts placed onto an agar layer in 24-well microtiter plates were treated with aqueous test solutions prepared from 10,000 ppm DMSO stock solutions by spraying. After drying, the plates were infested with L2 larvae (6 to 10 per well). The samples were assessed for mortality and growth inhibition in comparison to untreated samples 4 days after infestation.

[2] = system: Diabrotica balteata (Corn Root Worm); experiment: Example B3: Diabrotica balteata, sprayed maize sprouts, mortality; type: in vivo; conditions: 96 h, application rate of 200 ppm, L2 larvae, 4 days after infestation
Description: as §1, with “mortality” for “mortality and growth inhibition in comparison to untreated samples”

[3] = system: Euschistus heros (Neotropical Brown Stink Bug); experiment: Example B4: Euschistus heros, sprayed soybean leaves, growth inhibition; type: in vivo; conditions: 120 h, application rate of 200 ppm, N2 nymphs, 5 days after infestation
Description: Soybean leaves on agar in 24-well microtiter plates were sprayed with aqueous test solutions prepared from 10,000 ppm DMSO stock solutions. After drying the leaves were infested with N2 nymphs. The samples were assessed for growth inhibition in comparison to untreated samples 5 days after infestation. Control of Euschistus heros by a test sample is given when the growth inhibition is higher than the untreated sample.

[4] = system: Euschistus heros (Neotropical Brown Stink Bug); experiment: Example B5: Euschistus heros, sprayed soybean leaves, mortality; type: in vivo; conditions: 120 h, application rate of 200 ppm, N2 nymphs, 5 days after infestation
Description: (§2) Soybean leaves on agar in 24-well microtiter plates were sprayed with aqueous test solutions prepared from 10,000 ppm DMSO stock solutions. After drying the leaves were infested with N2 nymphs. The samples were assessed for mortality 5 days after infestation.

[5] = system: Euschistus heros (Neotropical Brown Stink Bug); experiment: Example B6: Euschistus heros, sprayed soybean leaves, mortality and growth inhibition; type: in vivo; conditions: 120 h, application rate of 200 ppm, N2 nymphs, 5 days after infestation, read-out: effect in at least one of the two categories (mortality or growth inhibition)
Description: as §2, with “mortality and growth inhibition in comparison to untreated samples” for “mortality”

[6] = system: Frankliniella occidentalis (Western Flower Thrips); experiment: Example B7: Frankliniella occidentalis, sprayed sunflower leaf discs, mortality; type: in vivo; conditions: foliar, 168 h, application rate of 200 ppm, population of mixed ages, 7 days after infestation
Description: Sunflower leaf discs were placed on agar in 24-well microtiter plates and sprayed with aqueous test solutions prepared from 10,000 DMSO stock solutions. After drying the leaf discs were infested with a Frankliniella population of mixed ages. The samples were assessed for mortality 7 days after infestation.

[7] = system: Plutella xylostella (Diamond Back Moth); experiment: Example B12: Plutella xylostella, treated artificial diet, mortality; type: in vivo; conditions: 120 h, application rate of 200 ppm, L2 larvae, 5 days after infestation
Description: (§3) 24-well microtiter plates with artificial diet were treated with aqueous test solutions prepared from 10,000 ppm DMSO stock solutions by pipetting. After drying, the plates were infested with L2 larvae (10 to 15 per well). The samples were assessed for mortality 5 days after infestation.

[8] = system: Plutella xylostella (Diamond Back Moth); experiment: Example B13: Plutella xylostella, treated artificial diet, mortality and growth inhibition; type: in vivo; conditions: 120 h, application rate of 200 ppm, L2 larvae, 5 days after infestation, read-out: effect in at least one of the two categories (mortality or growth inhibition)
Description: as §3, with “mortality and growth inhibition in comparison to untreated samples” for “mortality”

[9] = system: Spodoptera littoralis (Egyptian Cotton Leaf Worm); experiment: Example B14: Spodoptera littoralis, sprayed cotton leaf discs, anti-feeding effect; type: in vivo; conditions: foliar, 72 h, application rate of 200 ppm, L1 larvae, 3 days after infestation
Description: (§4) Cotton leaf discs were placed onto agar in 24-well microtiter plates and sprayed with aqueous test solutions prepared from 10,000 ppm DMSO stock solutions. After drying the leaf discs were infested with five L1 larvae. The samples were assessed for anti-feeding effect in comparison to untreated samples 3 days after infestation. Control of Spodoptera littoralis by a test sample is given when the anti-feedant effect is higher than the untreated sample.

[10] = system: Spodoptera littoralis (Egyptian Cotton Leaf Worm); experiment: Example B16: Spodoptera littoralis, sprayed cotton leaf discs, mortality; type: in vivo; conditions: foliar, 72 h, application rate of 200 ppm, L1 larvae, 3 days after infestation
Description: Cotton leaf discs were placed onto agar in 24-well microtiter plates and sprayed with aqueous test solutions prepared from 10,000 ppm DMSO stock solutions. After drying the leaf discs were infested with five L1 larvae. The samples were assessed for mortality 3 days after infestation.

[11] = system: Spodoptera littoralis (Egyptian Cotton Leaf Worm); experiment: Example B17: Spodoptera littoralis, sprayed cotton leaf discs, mortality, anti-feeding effect and growth inhibition; type: in vivo; conditions: foliar, 72 h, application rate of 200 ppm, L1 larvae, 3 days after infestation, read-out: control (at least one of mortality, anti-feedant effect, growth inhibition)
Description: Cotton leaf discs were placed onto agar in 24-well microtiter plates and sprayed with aqueous test solutions prepared from 10,000 ppm DMSO stock solutions. After drying the leaf discs were infested with five L1 larvae. The samples were assessed for mortality, anti-feeding effect, and growth inhibition in comparison to untreated samples 3 days after infestation. Control of Spodoptera littoralis by a test sample is given when at least one of the categories mortality, anti-feedant effect, and growth inhibition is higher than the untreated sample.

[12] = system: Spodoptera littoralis (Egyptian Cotton Leaf Worm); experiment: Example B18: Spodoptera littoralis, compound in agar absorbed by lettuce roots, mortality, anti-feedant effect and growth inhibition; type: in vivo; conditions: 144 h, test rate of 12.5 ppm, uptake by lettuce roots, Spodoptera eggs, 6 days after infestation, read-out: effect in at least one of the three categories (mortality, anti-feeding, or growth inhibition)
Source text: Test compounds were applied by pipette from 10,000 ppm DMSO stock solutions into 24-well plates and mixed with agar. Lettuce seeds were placed onto the agar and the multi well plate was closed by another plate which contained also agar. After 7 days the compound was absorbed by the roots and the lettuce grew into the lid plate. The lettuce leaves were then cut off into the lid plate. Spodoptera eggs were pipetted through a plastic stencil onto a humid gel blotting paper and the lid plate was closed with it. The samples were assessed for mortality, anti-feedant effect and growth inhibition in comparison to untreated samples 6 days after infestation.

[13] = system: Spodoptera littoralis (Egyptian Cotton Leaf Worm); experiment: Example B19: Spodoptera littoralis, compound in agar absorbed by lettuce roots, anti-feedant effect; type: in vivo; conditions: 144 h, test rate of 12.5 ppm, uptake by lettuce roots, Spodoptera eggs, 6 days after infestation, read-out: anti-feeding
Source text: Test compounds were applied by pipette prepared from 10,000 ppm DMSO stock solutions into 24-well plates and mixed with agar. Lettuce seeds were placed onto the agar and the multi well plate was closed by another plate which contained also agar. After 7 days the compound was absorbed by the roots and the lettuce grew into the lid plate. The lettuce leaves were then cut off into the lid plate. Spodoptera eggs were pipetted through a plastic stencil onto a humid gel blotting paper and the lid plate was closed with it. The samples were assessed for anti-feedant effect in comparison to untreated samples 6 days after infestation.

[14] = system: Spodoptera littoralis (Egyptian Cotton Leaf Worm); experiment: Example B20: Spodoptera littoralis, compound in agar absorbed by lettuce roots, mortality; type: in vivo; conditions: 144 h, test rate of 12.5 ppm, uptake by lettuce roots, Spodoptera eggs, 6 days after infestation
Source text: Test compounds were applied by pipette prepared from 10,000 ppm DMSO stock solutions into 24-well plates and mixed with agar. Lettuce seeds were placed onto the agar and the multi well plate was closed by another plate which contained also agar. After 7 days the compound was absorbed by the roots and the lettuce grew into the lid plate. The lettuce leaves were then cut off into the lid plate.
Spodoptera eggs were pipetted through a plastic stencil onto a humid gel blotting paper and the lid plate was closed with it. The samples were assessed for mortality 6 days after infestation.

[15] = system: Myzus persicae (Green Peach Aphid); experiment: Example B8: Myzus persicae, sprayed sunflower leaf discs, mortality; type: in vivo; conditions: foliar, 144 h, application rate of 200 ppm, leaf disc spray, aphid population of mixed ages, 6 days after infestation
Description: Sunflower leaf discs were placed onto agar in a 24-well microtiter plate and sprayed with aqueous test solutions prepared from 10,000 ppm DMSO stock solutions. After drying, the leaf discs were infested with an aphid population of mixed ages. The samples were assessed for mortality 6 days after infestation.

[16] = system: Plutella xylostella (Diamond Back Moth); experiment: Example B10: Plutella xylostella, treated artificial diet, growth inhibition; type: in vivo; conditions: 120 h, application rate of 200 ppm, L2 larvae, 5 days after infestation
Description: as §3, with “growth inhibition in comparison to untreated samples” for “mortality”, “infestation. Control of Plutella xylostella by a test sample is given when the growth inhibition is higher than the untreated sample.” for “infestation.”

[17] = system: Spodoptera littoralis (Egyptian Cotton Leaf Worm); experiment: Example B15: Spodoptera littoralis, sprayed cotton leaf discs, growth inhibition; type: in vivo; conditions: foliar, 72 h, application rate of 200 ppm, L1 larvae, 3 days after infestation, read-out: control (growth inhibition)
Description: as §4, with “growth inhibition” for “anti-feeding effect”, “growth inhibition” for “anti-feedant effect”

[18] = system: Myzus persicae (Green Peach Aphid); experiment: Example B9: Myzus persicae, roots of pea seedlings in test solution, mortality; type: in vivo; conditions: 144 h, test rate of 24 ppm, 6 days
Description: Roots of pea seedlings infested with an aphid population of mixed ages were placed directly into aqueous test solutions prepared from 10,000 DMSO stock solutions. The samples were assessed for mortality 6 days after placing seedlings into test solutions.

[19] = system: Tetranychus urticae (Two-Spotted Spider Mite); experiment: Example B21: Tetranychus urticae, sprayed bean leaf discs, mortality; type: in vivo; conditions: foliar, 192 h, application rate of 200 ppm, mixed population (mobile stages), 8 days after infestation
Description: Bean leaf discs on agar in 24-well microtiter plates were sprayed with aqueous test solutions prepared from 10,000 ppm DMSO stock solutions. After drying the leaf discs were infested with a mite population of mixed ages. The samples were assessed for mortality on mixed population (mobile stages) 8 days after infestation.

[20] = system: Aedes aegypti (Yellow Fever Mosquito); experiment: Example B23: Aedes aegypti, dry deposits in 12 well tissue culture plates, control; type: in vivo; conditions: application rate of 200 ppm in ethanol, adult females, after 48 h and/or 24 h
Description: Test solutions, at an application rate of 200 ppm in ethanol, were applied to 12 well tissue culture plates. Once the deposits were dry, five, two to five day old adult female Aedes aegypti were added to each well, and sustained with a 10% sucrose solution in a cotton wool plug. Assessment of knockdown was made one hour after introduction, and mortality was assessed at 24 and 48 hours after introduction.

## CCS(=O)(=O)c1cc(-c2ccc(Cl)cc2)cnc1-c1cn2cnc(C(F)(F)F)cc2n1 [Compound P5, 2-[5-(4-chlorophenyl)-3-ethylsulfonyl-2-pyridyl]-7-(trifluoromethyl)imidazo [1,2-c]pyrimidine]
[1]
  percent effect (mortality or growth inhibition) at 200 ppm: ≥ 80%
[2]
  mortality at 200 ppm: ≥ 80%
[3]
  inhibition at 200 ppm: ≥ 80%
[4]
  mortality at 200 ppm: ≥ 80%
[5]
  percent effect (mortality or growth inhibition) at 200 ppm: ≥ 80%
[6]
  mortality at 200 ppm: ≥ 80%
[7]
  mortality at 200 ppm: ≥ 80%
[8]
  percent effect (mortality or growth inhibition) at 200 ppm: ≥ 80%
[9]
  pest or weed control at 200 ppm: ≥ 80%
[10]
  mortality at 200 ppm: ≥ 80%
[11]
  percent control (mortality, anti-feedant effect or growth inhibition) at 200 ppm: ≥ 80%
[12]
  percent effect (mortality, anti-feeding or growth inhibition) at 12.5 ppm: ≥ 80%
[13]
  pest or weed control at 12.5 ppm: ≥ 80%
[14]
  mortality at 12.5 ppm: ≥ 80%

## CCS(=O)(=O)c1cc(C2(C#N)CC2)cnc1-c1cn2cnc(C(F)(F)F)cc2n1 [Compound P8, 1-[5-ethylsulfonyl-6-[7-(trifluoromethyl)imidazo[1,2-c]pyrimidin-2-yl]-3-pyridyl]cyclopropanecarbonitrile]
[1]
  percent effect (mortality or growth inhibition) at 200 ppm: ≥ 80%
[2]
  mortality at 200 ppm: ≥ 80%
[3]
  inhibition at 200 ppm: ≥ 80%
[4]
  mortality at 200 ppm: ≥ 80%
[5]
  percent effect (mortality or growth inhibition) at 200 ppm: ≥ 80%
[15]
  mortality at 200 ppm: ≥ 80%
[16]
  inhibition at 200 ppm: ≥ 80%
[7]
  mortality at 200 ppm: ≥ 80%
[8]
  percent effect (mortality or growth inhibition) at 200 ppm: ≥ 80%
[9]
  pest or weed control at 200 ppm: ≥ 80%
[17]
  inhibition at 200 ppm: ≥ 80%
[10]
  mortality at 200 ppm: ≥ 80%
[11]
  percent control (mortality, anti-feedant effect or growth inhibition) at 200 ppm: ≥ 80%

## CCS(=O)(=O)c1cc(CC#N)cnc1-c1cn2cnc(C(F)(F)F)cc2n1 [Compound P30, 2-[5-ethylsulfonyl-6-[7-(trifluoromethyl)imidazo[1,2-c]pyrimidin-2-yl]-3-pyridyl]acetonitrile]
[1]
  percent effect (mortality or growth inhibition) at 200 ppm: ≥ 80%
[2]
  mortality at 200 ppm: ≥ 80%
[4]
  mortality at 200 ppm: ≥ 80%
[5]
  percent effect (mortality or growth inhibition) at 200 ppm: ≥ 80%
[18]
  mortality at 24 ppm: ≥ 80%
[16]
  inhibition at 200 ppm: ≥ 80%
[8]
  percent effect (mortality or growth inhibition) at 200 ppm: ≥ 80%

## C=Cc1cnc(-c2cn3cnc(C(F)(F)F)cc3n2)c(S(=O)(=O)CC)c1 [Example H6, 2-(3-ethylsulfonyl-5-vinyl-2-pyridyl)-7-(trifluoromethyl)imidazo[1,2-c]pyrimidine]
other
  melting point: 174 to 176 °C

## CCS(=O)(=O)c1cc(-c2cc(F)cc(F)c2)cnc1-c1cn2cnc(C(F)(F)F)cc2n1 [Compound P14]
[1]
  percent effect (mortality or growth inhibition) at 200 ppm: ≥ 80%
[2]
  mortality at 200 ppm: ≥ 80%
[4]
  mortality at 200 ppm: ≥ 80%
[5]
  percent effect (mortality or growth inhibition) at 200 ppm: ≥ 80%
[15]
  mortality at 200 ppm: ≥ 80%
[16]
  inhibition at 200 ppm: ≥ 80%
[7]
  mortality at 200 ppm: ≥ 80%
[8]
  percent effect (mortality or growth inhibition) at 200 ppm: ≥ 80%
[9]
  pest or weed control at 200 ppm: ≥ 80%
[10]
  mortality at 200 ppm: ≥ 80%
[11]
  percent control (mortality, anti-feedant effect or growth inhibition) at 200 ppm: ≥ 80%
[12]
  percent effect (mortality, anti-feeding or growth inhibition) at 12.5 ppm: ≥ 80%
[13]
  pest or weed control at 12.5 ppm: ≥ 80%
[14]
  mortality at 12.5 ppm: ≥ 80%
[19]
  mortality at 200 ppm: ≥ 80%
[20]
  pest or weed control at 200 ppm: ≥ 80%
